Data published in patent US20040171594A1, “Use of bis-acid(5-androsten-17-one-3beta-hydroxyl)diester for manufacture pharmaceuticals” (priority 2001, published 2004).
Marks after values point to notes of the source that are not given here.

How the values were obtained:
[1] = tested on: arrhythmia of rats induced by Aconitine; test: Arrhythmia of rats induced by Aconitine; assay type: in vivo, SD rats
Description: Male SD rats, weighing (218.3±20.0) g, were anaesthetized with urethane 1.2 g/kg body weight by abdominal injection, continuously monitored by II lead electrocardiogram (ECG) by MS302 Biological Signal Record and Analysis System. After ten minutes of being administered drug or 0.5% CMC-Na through sublingual vein, rats were injected with Aconitine in external jugular vein at 2.5 μg/min speed, recorded the dose at appearance time of ventricular premature beat (VP), ventricular tachycardia (VT), ventricular fibrillation (VF) and cardiac arrest (CA), respectively. And t test was performed. […] The effect of compounds Ca Do E at 0.5 mg/kg dose were remarkably better than that of Prasterone and Arniodarone.

[2] = tested on: arrhythmia of rats induced by BaCl2; test: Arrhythmia of rats induced by BaCl2; assay type: in vivo, SD rats; conditions: BaCl2 4 mg/kg, drug 3 mg/kg into vein, within 60 min, n=10
Description: 50 male SD rats, weighing (236.7±13.7)g, were anaesthetized with 10% chloral hadrate 0.3 g/kg intraperitoneally, recorded ECG with intubating of external jugular vein administering drug. As soon as injected with BaCl2 4 mg/kg, rats usually emerged VP and VT quickly and developed to be the steady and typical double-aspect arrhythmia. After immediately injected with drug or 0.5% CMC-Na into vein, recorded the time of recovering and maintaining sinus rhythm within 60 min as standard, and compared the function between five groups. […] Time of maintaining sinus rhythm was longer and acted more quickly than that of Amiodarone group.

[3] = tested on: arrhythmia of guinea pigs induced by Ouabain; test: Arrhythmia of guinea pigs induced by Ouabain; assay type: in vivo; conditions: n=8
Description: Chose 40 male guinea pigs, weighing (288.8±38.3) g, randomly divided into six groups, anaesthetized with urethane 1.2 g/kg by abdominal injection. Ten minutes after administered drug or 0.5% CMC-Na, the guinea pigs were injected Ouabain into external jugular vein at 3 μg/min speed, recorded ECG respectively, measured the dose at appearance time of VP, VT, VF and CA, and performed t test.

[4] = tested on: myocardium injury model of rats induced by ISO; test: Myocardium injury (myocardial ischemia) model of rats induced by ISO; assay type: in vivo, SD rats; conditions: drug 0.76 mg/kg, n=8; for Σ ST: rats, ISO s.c.
Description: SD rats were measured ECG by chest leads before experiment, abandoned those of abnormal or arrhythmia at T wave, ST sect. […] They were divided into four groups according to Table 4, eight rats in each group. As dose of Table 4, tested compounds or 0.5% CMC-Na solution with same volume were administered through duodenum for 30 minutes, rats were anaesthetized with aether. After ECG was recorded, Isoproterenol (ISO) was administered by subcutaneous injection from the back, recorded ECG again after 30 minutes. After specimen was intragastricly granted for 24 hours and 48 hours, every group was administered simples again and recorded ECG again in terms of the methods stated above. After 72 hours, bleeding from the ophthalmic venous plexus and separated blood serum through centrifugation. Killed the rats, scissor the tip of the heart to prepare 10% myocardial tissue homogenate with 4° C. physiological saline as standby.
Measured each rat's value of ST before first administering ISO. And after first, second and third subcutaneous injection for 30 minutes, calculated mv mean value of ΣST as guide line of myocardium injury and performed t test.
The changes of MDA LDH and CK in serum were measured with agent kits.
The changes of MDA, LDH and CK in serum and myocardial tissue homogenate were measured with agent kits.

[5] = tested on: thymus and spleen of mice; test: Indexes of thymus and spleen of mice injected with cyclophosphamide; assay type: in vivo, NIH mice; conditions: cyclophosphamide 60 mg/kg i.p., drug 10 mg/kg intragastric for 30 days, n=10
Description: Chose 90 healthy NIH mice, weighing (18˜22)g, equal amount of male and female. Every mouse was injected with cyclophos phamide (60 mg/kg, intraperitoneally). […] Administered specimen through intragastric intubation in terms of the dose in Table 8. Continuously administered orally specimen for 30 days, all mice fasted on the 30th day, but were supplied with water. On the 31th day, mice of every group were killed. Weighed their body, thymus and spleen, calculated index of thymus and spleen, compared the difference among each group.

[6] = tested on: cerebral ischemia-reperfusion injury of mice; test: Memory step-through test after cerebral ischemia-reperfusion injury; assay type: in vivo, NIH mice; conditions: 4.5 mg/kg intragastric once a day for 10 days, n=10
Description: After weighed, NIH mice were anaesthetized with Penbotarbital 60 mg/kg, then performed operation. Fixed at supine position, the skin in the middle of the deck was dissected about 7 mm. Separated common carotid artery of two sides of neck, surrounded with the thread of No “0”. Common carotid artery of two sides was chipped with artery clip for 2 minutes to induce cerebral ischemia. In the end of ischemia treatment, artery clip was loosed and blood perfusion was restored, rest for five minutes, repeated twice as that. After blocking blood flow of carotid, sutured incision. Recorded trail bloodletting, bloodletting quantity was no more than 10% of total blood quantity. After operation, […] were administered with proper physiological saline through intraperitoneal injection in order to supple capacity of blood. After pseudo operation group was anaesthetized, carotid of two sides was separated but blood flow was not blocked, without being bloodletting too.
In experiment appearance of body temperature lowering and righting reflex disappearing was as positive guide-line of ischemia, discarding those without typical guide line of ischemia. In the procedure of ischemia or after operation, some of animals would be dead. […] According to the dose of Table 7, animals were administered with medicine by intragastric intubation once a day, and continue administered drug for 10 days. After 10 days, memory test was performed.

[7] = tested on: acute renal failure of mice induced by endotoxin; test: Acute renal failure model induced by endotoxin; assay type: in vivo, NIH mice; conditions: drug 10 mg/kg i.p., endotoxin 0.06 g/kg, after five hours, n=10; for GSH-Px: mice kidney homogenate; for BUN / Cr: mice serum
Description: After five hours, blood of the mice was collected by removing eyes, assayed Blood Urea Nitrogen (BUN) and Creatinine (Cr) concentration of serum. One kidney of each […] was taken out and made 100 mL/L homogenate, assayed activity of Glutathione Peroxidase (GSH-Px) enzyme.

[8] = tested on: osteoporosis model of rats induced by Retinoic acid; test: Osteoporosis model of rats induced by Retinoic acid; assay type: in vivo, SD rats; conditions: Retinoic acid 70 mg/kg, specimen orally 30 days (dose not given), right thighbone, n=8
Description: After continuously administering specimen for 30 days, killed rats and took right thighbone of rat.
Took same part tissue of right thighbone, routinely decalcified, enveloped with olefin, and dyed with HE. Observed with ordinary optics microscope, import all imagines into computer with A/D conversion of pickup camera, via dealing with image analysis software obtained index of guide line as follows: relative bone volume, indicating percentage that bone trabecula accounted for medullary cavity, 1.25×10×4 times; average width of bone trabecula, 1.25×10×10 times; amount of cell per area in bone trabecula, gathering same area image (640×480) of bone trabecula with image analysis software, calculating amount of bone cell in corresponding area, 1.25×10×40 times; Average length of bone cell lacuna, 1.25×10×40; Average width of bone cell lacuna, 1.25×10×40. The above five indexes of static state guide-line were all observed for ten eyeshots, calculating their average value.

[9] = drug 3 mg/kg 10 min before Ouabain 3 μg/min
[10] = rats, drug 0.5 mg/kg sublingual vein 10 min before Aconitine 2.5 μg/min, n=10
[11] = myocardial tissue homogenate of rats with ISO myocardium injury
[12] = serum of rats with ISO myocardium injury, after 72 hours
[13] = drug 1.5 mg/kg 10 min before Ouabain 3 μg/min

| Compound | Activity of CK [4, 11] | Activity of LDH [4, 11] | MDA [4, 11] | Σ ST ([4]; 30 min) | Σ ST ([4]; 24 h) | Σ ST ([4]; 48 h) | Σ ST ([4]; 72 h) | Activity of CK [4, 12] | Activity of LDH [4, 12] | MDA [4, 12] | Index of spleen [5] | Index of thymus [5] | Latency of dark cabin, Memory [6] | Latency of dark cabin, Study [6] | Number of error [6] | GSH-Px [7] | BUN [7] | Cr [7] | Amount of cell per area in bone trabecula [8] | Average width of bone trabecula [8] | other results |
| --- | --- | --- | --- | --- | --- | --- | --- | --- | --- | --- | --- | --- | --- | --- | --- | --- | --- | --- | --- | --- | --- |
| CCCCc1oc2ccccc2c1C(=O)c1cc(I)c(OCCN(CC)CC)c(I)c1 [Amiodarone, reference compound] |  |  |  |  |  |  |  |  |  |  |  |  |  |  |  |  |  |  |  |  | Dose of Aconitine required to induce CA ([1]; {}): 0.176 ± 0.038 mg/kg; Dose of Aconitine required to induce VF ([1]; {}): 0.1412 ± 0.0282 mg/kg; Dose of Aconitine required to induce VP ([1]; {}): 0.09 ± 0.0257 mg/kg; Dose of Aconitine required to induce VT ([1]; {}): 0.1088 ± 0.0254 mg/kg; time of maintaining sinus rhythm [2]: 40.156 ± 5.124 min; time of storing sinus rhythm [2]: 15.859 ± 5.126 min; Dose of Oua at appearance of CA [3, 9]: 0.2836 ± 0.0439 mg/kg; Dose of Oua at appearance of VF [3, 9]: 0.2476 ± 0.0461 mg/kg; Dose of Oua at appearance of VP [3, 9]: 0.1184 ± 0.0335 mg/kg; Dose of Oua at appearance of VT [3, 9]: 0.175 ± 0.0411 mg/kg |
| C[C@]12CC[C@H](OC(=O)CCCC(=O)O[C@H]3CC[C@@]4(C)C(=CC[C@@H]5[C@@H]4CC[C@]4(C)C(=O)CC[C@@H]54)C3)CC1=CC[C@@H]1[C@@H]2CC[C@]2(C)C(=O)CC[C@@H]12 [Compound E, glutaric acid-(5-androsten-17-one-3β-ol)-diester] | 206.18 ± 43.80 U/L | 160.27 ± 20.36 U/L | 89.62 ± 12.37 nmol/g | 0.53 ± 0.11 mv | 0.50 ± 0.10 mv | 0.57 ± 0.04 mv | 0.51 ± 0.07 mv | 275.44 ± 21.81 U/L | 267.35 ± 38.42 U/L | 25.54 ± 3.80 nmol/mL | 68.20 ± 9.82 mg/10 g body weight | 20.22 ± 2.75 mg/10 g body weight | 45.8 ± 12.9 s | 24.1 ± 16.0 s | 3.1 ± 2.7 n | 32.0 ± 14.4 nU · L^−1 | 315.9 ± 40.8*** 10 mg · L^−1 | 32.86 ± 8.07*** 10 mg · L^−1 | 19.35 ± 3.13 | 68.66 ± 9.80 μm | Dose of Aconitine required to induce CA [1, 10]: 0.1845 ± 0.0271 mg/kg; Dose of Aconitine required to induce VF [1, 10]: 0.1634 ± 0.0305 mg/kg; Dose of Aconitine required to induce VP [1, 10]: 0.1082 ± 0.0374 mg/kg; Dose of Aconitine required to induce VT [1, 10]: 0.1224 ± 0.0378 mg/kg; Relative bone volume [8]: 35.87 ± 3.12 % |
| C[C@]12CC[C@H](OC(=O)CCCCC(=O)O[C@H]3CC[C@@]4(C)C(=CC[C@@H]5[C@@H]4CC[C@]4(C)C(=O)CC[C@@H]54)C3)CC1=CC[C@@H]1[C@@H]2CC[C@]2(C)C(=O)CC[C@@H]12 [Compound F, adipic acid-(5-androsten-17-one-3β-ol)-diester] | 221.58 ± 45.58 U/L | 157.39 ± 20.69 U/L | 105.02 ± 10.84 nmol/g | 0.47 ± 0.10 mv | 0.57 ± 0.15 mv | 0.61 ± 0.05 mv | 0.53 ± 0.08 mv | 252.17 ± 18.41 U/L | 250.40 ± 31.30 U/L | 24.16 ± 4.18 nmol/mL | 75.24 ± 15.48 mg/10 g body weight | 16.24 ± 3.31 mg/10 g body weight | 46.5 ± 13.8 s | 28.7 ± 11.8 s | 2.9 ± 1.1 n | 35.2 ± 12.8 nU · L^−1 | 377.1 ± 38.1*** 10 mg · L^−1 | 38.31 ± 9.69*** 10 mg · L^−1 | 26.31 ± 3.16 | 74.67 ± 3.56 μm | Dose of Oua at appearance of CA [3, 13]: 0.212 ± 0.0406 mg/kg; Dose of Oua at appearance of VF [3, 13]: 0.1762 ± 0.0481 mg/kg; Dose of Oua at appearance of VP [3, 13]: 0.0874 ± 0.0213 mg/kg; Dose of Oua at appearance of VT [3, 13]: 0.1394 ± 0.0354 mg/kg; Relative bone volume [8]: 37.14 ± 3.46 % |
| glycol-disulphonic acid-(5-androsten-17-one-3β-ol)-diester [Compound G] | 225.60 ± 31.81 U/L | 152.22 ± 25.42 U/L | 99.52 ± 13.15 nmol/g | 0.51 ± 0.13 mv | 0.50 ± 0.14 mv | 0.67 ± 0.19 mv | 0.42 ± 0.07 mv | 248.20 ± 20.50 U/L | 254.75 ± 30.81 U/L | 20.54 ± 2.11 nmol/mL | 80.22 ± 17.33 mg/10 g body weight | 18.39 ± 3.24 mg/10 g body weight | 47.5 ± 15.7 s | 29.5 ± 17.5 s | 3.4 ± 1.6 n | 31.8 ± 12.3 nU · L^−1 | 412.2 ± 40.5*** 10 mg · L^−1 | 40.42 ± 10.94*** 10 mg · L^−1 | 25.84 ± 3.31 | 69.67 ± 3.15 μm | Dose of Oua at appearance of CA [3, 13]: 0.228 ± 0.0398 mg/kg; Dose of Oua at appearance of VF [3, 13]: 0.1887 ± 0.0378 mg/kg; Dose of Oua at appearance of VP [3, 13]: 0.1109 ± 0.0203 mg/kg; Dose of Oua at appearance of VT [3, 13]: 0.1443 ± 0.0338 mg/kg; Relative bone volume [8]: 34.37 ± 3.27 % |
